One experiment addresses T1, hLXRα (Homo sapiens, UniProt Q13133).
T1 construct: expressed in transfected cells; host or cells: CHO-K1 (Chinese hamster ovary), transient transfection with pBKCMV GAL4-hLXRα
T1 sequence (Q13133 209-447 limits assumed): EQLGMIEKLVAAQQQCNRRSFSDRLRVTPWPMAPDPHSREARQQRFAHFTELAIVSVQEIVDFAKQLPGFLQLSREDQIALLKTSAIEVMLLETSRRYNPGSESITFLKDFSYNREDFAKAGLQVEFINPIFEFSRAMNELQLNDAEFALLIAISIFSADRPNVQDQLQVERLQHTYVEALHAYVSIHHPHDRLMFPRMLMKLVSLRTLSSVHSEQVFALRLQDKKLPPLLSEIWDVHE
Nature of the experiment: LXRα transactivation activity, GAL4-hLXRα LBD / (UAS)4-alkaline phosphatase reporter, transient transfection in CHO-K1 cells. It is filed as cell-based. Further details: key to Enhancing effect (LXRα): “—” indicates no significant effect. To be noted: for LXRα transactivation activity, % of T0901317: co-treated with LXR agonist T0901317 (0.5 μM); for LXRα transactivation activity, % of T0901317 / LXRα transactivation activity: 48 hours; for Antagonistic effect (LXRα), ↓ percentage: against LXR agonist (T0901317); for LXRα transactivation activity: sample alone at 1, 5, and 10 μM, p>0.05 vs vehicle; for Enhancing effect (LXRα): sample alone, enhancing percentage relative to positive control. The text has this: (§1) For the evaluation of LXR transactivation activity, the embodiments of the present invention utilize transient transfection and the vectors used are: (1) pBKCMV GAL4-hLXRα and pBKCMV GAL4-hLXRβ; (2) pBKCMV (UAS)4-alkaline phosphatase, wherein pBKCMV GAL4-hLXRα and pBKCMV GAL4-hLXRβ are pBKCMV vectors having chimeric receptor of GAL4-hLXRα ligand binding doman (LBD) and GAL4-hLXRβ LBD, while pBKCMV (UAS)4-alkaline phosphatase is the pBKCMV vector having the reporter gene of (UAS)4 alkaline phosphatase (ALP). UAS indicates upstream activation sequence. All vectors were co-transfected into Chinese hamster ovary cell (CHO-K1, from Bioresource Collection and Research Center of Food Industry Research and Development Institute, BCRC: 6006).
(§2) Transient transfection of the embodiments of the present invention was performed using Lipofectamin 2000 (Invitrogen). Firstly, after CHO-K1 cells were fully grown, cells were dis-attached by trpsin-EDTA solution and were eluted using 10% CSF-Ham's F-12, wherein CSF represents the FBS pretreated by charcoal (Dextran coated, Sigma, C6231). The cell suspension was diluted to 2.5×10^5 cells/mL, planted onto 96-well plate (100 μL/well), and incubated for 20 to 24 hours at 37° C. with 5% CO2.
(§3) Detailed steps for transfection are as follow: Lipofectamine 2000 was diluted in PS tubes by serum-free OPTI-MEM®I (GIBCO, 31985) for 5 minutes at room temperature; the vector DNA was diluted by a small amount of serum-free OPTI-MEM®I; the vectors in Table 2 were mixed with Lipofectamine 2000 with specific ratio (GAL4-hLXRα:(UAS)4-ALP=4:1; GAL4-hLXRβ:(UAS)4-ALP=4:1) and reacted for 20 minutes at room temperature. During the reaction, the cells were washed by serum-free Ham's F-12 medium (100 μL/well) twice to allow the formation of DNA-liposome complex; the vectors were then added to the above washed cells for transfection to take place at 37° C. and 5% CO2. Solution for transfection was removed after the transient transfection was completed.
Cells after transient transfection in Example 1 and removing the transfection solution were added to fucoxanthin and fucoxanthinol diluted with 10% TCM-Ham's F-12, LXR agonist T0901317, or none, to serve as experimental group, positive control, or vehicle, respectively. The ALP activities of all groups were analysis after incubation for 48 hours at 37° C. with 5% CO2.
(§4) The ALP activity analysis was performed by reacting the culture medium (20 μL/well) and reactant (100 mM pNPP:H2O:2X SEAP assay buffer=1:9:10, 200 μL/well) in a new 96-well plate for 15 minutes at 37° C. The absorbance at 405 nm was measured using microspectrometer.

For the next experiment, the target named is T2, hLXRβ (Homo sapiens, UniProt P55055).
T2 construct: expressed in transfected cells; host or cells: CHO-K1 (Chinese hamster ovary), transient transfection with pBKCMV GAL4-hLXRβ
T2 sequence (P55055 222-460 limits assumed): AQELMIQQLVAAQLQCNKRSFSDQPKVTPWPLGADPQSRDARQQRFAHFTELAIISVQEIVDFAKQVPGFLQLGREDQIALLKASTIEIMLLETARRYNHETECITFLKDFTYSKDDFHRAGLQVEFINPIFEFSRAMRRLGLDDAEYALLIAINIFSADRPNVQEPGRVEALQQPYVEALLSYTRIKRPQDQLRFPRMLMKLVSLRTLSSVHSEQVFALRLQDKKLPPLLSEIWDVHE
Nature of the experiment: LXRβ transactivation activity, GAL4-hLXRβ LBD / (UAS)4-alkaline phosphatase reporter, transient transfection in CHO-K1 cells. Type of experiment: cell-based. Conditions: for LXRβ transactivation activity, % of GW3965: co-treated with LXR agonist GW3965 (0.5 μM); for LXRβ transactivation activity, % of GW3965 / LXRβ transactivation activity, % of the positive control GW3965: 48 hours; for Antagonistic effect (LXRβ), ↓ percentage: against LXR agonist (GW3965); for Enhancing effect (LXRβ), ↑ percentage: sample alone, relative to positive control.
From the text: as §1, §2, §3, §4
Cells after the abovementioned transient transfection and removing the transfection solution were added to fucoxanthin and fucoxanthinol diluted with 10% TCM-Ham's F-12, LXR agonist GW3965 (3-[3-[[[2-Chloro-3-trifluoromethyl)-phenyl]methyl](2,2-diphenyl-ethyl)amino]-propoxy]benzeneacetic acid), or none, to serve as experimental group, positive control, or vehicle, respectively. The ALP activities of all groups were analysis after incubation for 48 hours at 37° C. with 5% CO2. Same method for ALP analysis applied as describe in Example 2.

With fucoxanthin, the “LXRα transactivation activity, % of T0901317” value on hLXRα (5 μM) stood at 76%. For the same molecule, at hLXRα (10 μM), the “Antagonistic effect (LXRα), ↓ percentage” value is “↓59%” and the “LXRα transactivation activity, % of T0901317” value is given as 41%. Besides, at hLXRα, the LXRα transactivation activity result is reported as “no significant LXRα transactivation activities” and the “Enhancing effect (LXRα)” value is listed as “—”. The “LXRβ transactivation activity, % of GW3965” value on hLXRβ (5 μM) is reported as 69%. Also, on hLXRβ (10 μM), the “Antagonistic effect (LXRβ), ↓ percentage” value is recorded as “↓49%”; the “LXRβ transactivation activity, % of GW3965” value stood at 51%; the “Enhancing effect (LXRβ), ↑ percentage” value is “↑2%”. The “LXRβ transactivation activity, % of the positive control GW3965” value on hLXRβ (sample alone at 10 μM) was “approximately 2%”.
With `C\C(C=C=C1C(C)(C)C[C@H](O)C[C@@]1(C)O)=C/C=C/C(C)=C/C=C/C=C(C)/C=C/C=C(\C)C(=O)C[C@@]12O[C@]1(C)C[C@@H](O)CC2(C)C` [fucoxanthinol], the “LXRα transactivation activity, % of T0901317” value on hLXRα (5 μM) came out at 48%; on hLXRα (10 μM), 20%. Further, on hLXRα (10 μM), the “Antagonistic effect (LXRα), ↓ percentage” value was “↓80%”. Further, the LXRα transactivation activity entry on hLXRα is reported as “no significant LXRα transactivation activities”. Further, the “Enhancing effect (LXRα)” value on hLXRα was “—”. Further, the “LXRβ transactivation activity, % of GW3965” value came out at 79% on hLXRβ (1 μM), 62% at hLXRβ (5 μM) and 36% on hLXRβ (10 μM). Besides, at hLXRβ (1 μM), the “Enhancing effect (LXRβ), ↑ percentage” value is recorded as “↑3%”. On hLXRβ (10 μM), the “Antagonistic effect (LXRβ), ↓ percentage” value is “↓64%”. Moreover, the figures for the “LXRβ transactivation activity, % of the positive control GW3965” value at hLXRβ (sample alone at 1 μM) and at hLXRβ (sample alone at 5 μM) were “approximately 3%” and “approximately 2%”, respectively.
